{"source": "patent US11215617B2", "about": "“Treatment of metastatic prostate cancer” (The Regents of the University of California, priority 2013, dated 2022)", "key": {"C4-2B MR cells [1]": {"tested_on": "C4-2B MR cells", "assay": "Clonogenic assay", "type": "cell-based"}, "[2]": {"tested_on": "pz-HPV7 normal prostate epithelial cells", "assay": "Cell growth assay (cell numbers counted, cell survival rate)", "type": "cell-based", "details": "0.5 μM niclosamide, 48 hours", "procedure": "(§1) Total cell numbers were counted and the cell survival rate (%) was calculated. Cell survival rate (%)=(Treatment group cell number/Control group cell number)×100%. […] Total cell numbers were counted after 2, 4, and 7 days. […] The cells were treated as indicated and total cell numbers were counted."}, "[3]": {"tested_on": "prostate cancer cells (C4-2 neo, C4-2 AR-V7, CWR22rv1)", "assay": "Cell growth assay (cell numbers counted, cell survival rate)", "type": "cell-based", "details": "0.5 μM niclosamide, 48 hours, media containing FBS", "procedure": "as §1"}, "AR": {"tested_on": "AR", "assay": "PSA luciferase assay in LNCaP cells, DHT induced", "type": "cell-based, human", "details": "niclosamide or enzalutamide with DHT overnight", "from_the_text": "LNCaP, C4-2 or 293 cells were transfected with pGL3-PSA6.0-Luc, pGL3-AREI/II-Luc reporters along with AR-V7, for example as indicated in the figures, in FBS or CS-FBS condition. Cell lysates were subjected to luciferase assays with the Luciferase Assay System (Promega)."}, "[4]": {"tested_on": "C4-2B and C4-2B AbiR cells", "assay": "Growth or viability (FIG. 23)", "type": "cell-based"}, "CWR22rv1 cells [5]": {"tested_on": "CWR22rv1 cells", "assay": "Clonogenic assay"}, "pz-HPV7 cells": {"tested_on": "pz-HPV7 cells", "assay": "Cell death ELISA (apoptosis)", "type": "cell-based", "details": "0.5 μM niclosamide, 48 hours", "procedure": "(§2) Floating and attached cells were collected and homogenized in 400 μL of incubation buffer. The wells were coated with antihistone antibodies and incubated with the lysates, horseradish peroxidase-conjugated anti-DNA antibodies, and the substrate. Absorbance was measured at 405 nm."}, "[6]": {"tested_on": "prostate cancer cells (C4-2 neo, C4-2 AR-V7, CWR22rv1)", "assay": "Cell death ELISA (apoptosis)", "type": "cell-based", "details": "0.5 μM niclosamide, 48 hours", "procedure": "as §2"}, "cancer cells": {"tested_on": "cancer cells", "details": "some reports suggest; cited from earlier work"}, "LNCaP-s17 cells [7]": {"tested_on": "LNCaP-s17 cells", "assay": "Cell growth assay", "type": "cell-based, human", "details": "20 μM enzalutamide and 0.25 μM niclosamide individually or in combination, 2, 4 and 7 days"}, "C4-2B and C4-2B MR cells": {"tested_on": "C4-2B and C4-2B MR cells", "assay": "Growth or viability (FIG. 22)", "type": "cell-based"}, "C4-2B MR cells [8]": {"tested_on": "C4-2B MR cells", "assay": "Cell growth assay", "type": "cell-based", "details": "different concentrations, 48 hours", "procedure": "as §1"}, "LNCaP-STAT3C cells": {"tested_on": "LNCaP-STAT3C cells", "assay": "Cell migration or invasion (FIG. 25)", "type": "cell-based, human"}, "normal cells": {"tested_on": "normal cells", "details": "some reports suggest; cited from earlier work"}, "PSA [9]": {"tested_on": "PSA", "assay": "PSA ELISA of culture supernatants of C4-2 AR-V7 cells", "type": "cell-based", "details": "CS-FBS, 1.0 μM niclosamide overnight", "procedure": "PSA levels were measured in the culture supernatants using ELISA (United Biotech, Inc., Mountain View, Calif.) according to the manufacturer's instructions."}, "[10]": {"tested_on": "recruitment of AR-V7 to PSA promoter", "assay": "ChIP assay in C4-2 AR-V7 cells", "type": "cell-based", "details": "CS-FBS 3 days, niclosamide (0.5 μM and 1 μM) or 20 μM enzalutamide overnight", "procedure": "C4-2 neo and C4-2 AR-V7 cells were treated as noted herein. DNA-AR protein complexes were cross-linked inside the cells by the addition of 1% formaldehyde. Whole-cell extracts were prepared by sonication, and an aliquot of the cross-linked DNA-protein complexes was immunoprecipitated by incubation with the AR-specific antibody (AR-441 obtained from Santa Cruz Biotechnology) overnight at 4° C. with rotation. Chromatin-antibody complexes were isolated from solution by incubation with protein A/G agarose beads for 1 hour at 4° C. with rotation. The bound DNA-protein complexes were washed and eluted from beads with elution buffer (1% SDS and 0.1 mol/L NaHCO3), crosslinking was reversed, and DNA was extracted. The resulting chromatin preparations were analyzed by PCR using primers spanning either the proximal or the distal enhancer AREs of the PSA promoter. Isotype-matched IgG was used as control."}, "[11]": {"tested_on": "prostate cancer cells (CWR22rv1, C4-2 AR-V7, C4-2 neo)", "assay": "Clonogenic assay", "type": "cell-based", "details": "0, 0.5, 1.0 μM niclosamide"}, "CWR22rv1 cells [12]": {"tested_on": "CWR22rv1 cells", "assay": "Cell growth assay", "type": "cell-based", "details": "dose and time dependent", "method": "Total cell numbers were counted after 3 or 5 days. […] Total cell numbers were counted or the cell survival rate (%) was calculated. Cell survival rate (%)=(Treatment group cell number/Control group cell number)×100%."}, "PSA [13]": {"tested_on": "PSA", "assay": "Western blot of PSA protein in C4-2 AR-V7 cells", "type": "cell-based", "details": "CS-FBS, 1.0 μM niclosamide or 20 μM enzalutamide overnight", "method": "(§4) Whole cell protein extracts were resolved on SDS-PAGE and proteins were transferred to nitrocellulose membranes. […] Tubulin was used to monitor the amounts of samples applied. Following secondary antibody incubation, immunoreactive proteins were visualized with an enhanced chemiluminescence detection system (Millipore, Billerica, Mass.)."}, "STAT3 [14]": {"tested_on": "STAT3", "assay": "STAT3 activation in LNCaP-s17 cells", "type": "cell-based, human", "method": "as §4"}, "STAT3 [15]": {"tested_on": "STAT3", "details": "DU145 cells, shown previously; cited from earlier work"}, "LNCaP-s17 cells [16]": {"tested_on": "LNCaP-s17 cells", "assay": "Cell migration or invasion (FIG. 24)", "type": "cell-based, human"}, "CWR22rv1 xenografts": {"tested_on": "CWR22rv1 xenografts", "assay": "CWR22rv1 xenograft tumor growth in SCID mice", "type": "in vivo", "details": "3 weeks", "procedure": "(§3) CWR22rv1 cells (3 million) were mixed with matrigel (1:1) and injected subcutaneously into the flanks of 6-7 week male SCID mice. […] Tumors were measured using calipers twice a week and tumor volumes were calculated using length×width2/2. Tumor tissues were harvested after 3 weeks of treatment.\nTumors were measured using calipers twice a week and tumor volumes were calculated using length×width2/2. Tumor tissues were harvested after 3 weeks of treatment. The results are depicted in FIGS. 40A-40D.\nas §3, with “For the in vivo experiment, CWR22Rv1” for “CWR22rv1”, “(4” for “(3”, “of” for “of 6-7 week”, “treatment. The results are depicted in FIGS. 42A-42D.” for “treatment.”\nCWR22Rv1 cells (4 million) were mixed with matrigel (1:1) and injected subcutaneously into the flanks of 6-7 week male SCID mice. […] Tumors were measured using calipers twice a week and tumor volumes were calculated using length×width2/2. Tumor tissues were harvested after 3 weeks of treatment."}, "[17]": {"tested_on": "cancer cell metastasis and migration", "details": "in vitro and in vivo, reported; cited from earlier work"}, "prostate cancer cells": {"tested_on": "prostate cancer cells", "assay": "Cell growth, migration, invasion and colony formation (FIGS. 16-19)", "type": "cell-based", "details": "effect appears to be dose dependent"}, "[18]": {"details": "C4-2B MR cells, 0.5 μM or 1.0 μM niclosamide, 10 μM or 20 μM enzalutamide"}}, "note": "Entries after “also recorded” stand apart in the source; their conditions may differ.", "data": [{"smiles": "O=C(Nc1ccc([N+](=O)[O-])cc1Cl)c1cc(Cl)ccc1O", "note": "[niclosamide, (5-chloro-N-2chloro-4-nitro-phenyl)-2-hydroxybenzamide]", "values": [{"measurement": "colony formation", "setting": "C4-2B MR cells [1]; [18]", "result": "significantly inhibited colony formation; also recorded: inhibited colony formation in a dose dependent manner"}, {"measurement": "colony size", "setting": "C4-2B MR cells [1]; [18]", "result": "significantly inhibited the colony size"}, {"measurement": "colony formation", "setting": "C4-2B MR cells [1]; C42B MR cells, 0.25 μM niclosamide (FIGS. 37 and 38)", "result": "significantly inhibits colony formation"}, {"measurement": "enhancement of enzalutamide inhibition of colony formation", "setting": "C4-2B MR cells [1]; C42B MR cells, 0.25 μM niclosamide with 20 μM enzalutamide", "result": "significantly enhances enzalutamide inhibition of colony formation"}, {"measurement": "cell growth", "setting": "[2]", "result": "little effects"}, {"measurement": "cell growth", "setting": "[3]", "result": "significantly inhibited cell growth"}, {"measurement": "DHT induced AR transcriptional activity", "setting": "AR", "result": "dramatically inhibited DHT induced AR transcriptional activity"}, {"measurement": "enhancement of the effect of abiraterone on growth or viability", "setting": "[4]", "result": "enhances the effect of arbiraterone"}, {"measurement": "colony formation", "setting": "CWR22rv1 cells [5]; CWR22rv1 cells, 0, 0.5 μM or 1.0 μM niclosamide", "result": "inhibited colony formation in a dose dependent manner"}, {"measurement": "enhancement of enzalutamide inhibition of colony formation", "setting": "CWR22rv1 cells [5]; CWR22rv1 cells, 0.25 μM niclosamide with 20 μM enzalutamide", "result": "significantly enhances enzalutamide inhibition of colony formation"}, {"measurement": "cell apoptosis (cell death ELISA)", "setting": "pz-HPV7 cells", "result": "little effect"}, {"measurement": "cell apoptosis (cell death ELISA)", "setting": "[6]", "result": "significantly induced cell apoptosis"}, {"measurement": "activity against cancer cells", "setting": "cancer cells", "result": "active against cancer cells"}, {"measurement": "cell growth, time dependent experiment", "setting": "LNCaP-s17 cells [7]", "result": "little effect"}, {"measurement": "enhancement of the effect of enzalutamide on growth or viability", "setting": "C4-2B and C4-2B MR cells", "result": "enhances the effect of enzalutamide"}, {"measurement": "cell growth (total cell numbers)", "setting": "C4-2B MR cells [8]", "result": "significantly inhibited; also recorded: inhibited C4-2B MR cell growth in a dose dependent manner"}, {"measurement": "cell migration or invasion", "setting": "LNCaP-STAT3C cells", "result": "inhibits cell migration or invasion"}, {"measurement": "viability of normal cells", "setting": "normal cells", "result": "minimal effects on the viability of normal cells"}, {"measurement": "PSA levels (ELISA)", "setting": "PSA [9]", "result": "significantly inhibited PSA levels"}, {"measurement": "recruitment of AR-V7 to PSA promoter", "setting": "[10]", "result": "significantly reduced recruitment of AR-V7 to PSA promoter"}, {"measurement": "clonogenic ability", "setting": "[11]", "result": "significantly inhibited clonogenic ability of prostate cancer cells in a dose dependent manner"}, {"measurement": "enhancement of bicalutamide effects in vitro", "setting": "CWR22rv1 cells [12]", "result": "significantly enhanced bicalutamide effects"}, {"measurement": "PSA protein expression (western blot)", "setting": "PSA [13]", "result": "significantly inhibited PSA protein expression"}, {"measurement": "STAT3 activation", "setting": "STAT3 [14]", "result": "significantly inhibited STAT3 activation; also recorded: inhibited constitutively active STAT3 in a dose dependent manner"}, {"measurement": "STAT3 expression", "setting": "STAT3 [15]", "result": "able to inhibit STAT3 expression"}, {"measurement": "cell migration or invasion", "setting": "LNCaP-s17 cells [16]", "result": "inhibits cell migration or invasion"}, {"measurement": "enhancement of bicalutamide effects in vivo", "setting": "CWR22rv1 xenografts; bicalutamide 25 mg/kg p.o. + niclosamide 25 mg/kg i.p., 5 days per week", "result": "enhanced bicalutamide treatment; also recorded: significantly enhanced bicalutamide effects"}, {"measurement": "tumor volume", "setting": "CWR22rv1 xenografts; enzalutamide 25 mg/kg p.o., niclosamide 25 mg/kg i.p., or both", "result": "decreased the tumor volume"}, {"measurement": "xenograft tumor growth", "setting": "CWR22rv1 xenografts; niclosamide 200 mg/kg p.o. B.I.D., 5 days per week", "result": "significantly inhibited Rv1 xenograft tumor growth"}, {"measurement": "cancer cell metastasis and migration", "setting": "[17]", "result": "inhibit cancer cell metastasis and migration in vitro and in vivo"}, {"measurement": "cell growth", "setting": "prostate cancer cells", "result": "inhibits"}, {"measurement": "colony formation", "setting": "prostate cancer cells", "result": "inhibits"}, {"measurement": "invasion", "setting": "prostate cancer cells", "result": "inhibits"}, {"measurement": "migration", "setting": "prostate cancer cells", "result": "inhibits"}]}]}
